Calls of active or inactive are those of the source. No cut-off for these calls is given here.

The target in test [1] is T1, Estrogen receptor (Rattus norvegicus) (UniProt P06211+Q62986). Kind of test: Effect on serum cholesterol level as tissue specific estrogen agonist assay in ovariectomized rat model: significant decrease at <10 mg/kg dose. Format: functional, organism-based. The note with it: filed as agonist.
The target of test [2] is T1, Estrogen receptor (Rattus norvegicus). In words: Effect on uterine weight as tissue specific estrogen agonist assay in ovariectomized rat model: significant increase at <=10 mg/kg dose. Format: functional, organism-based. The note with it: filed as agonist.
In test [3] the test system is Rattus norvegicus. Kind of test: Effect on uterine weight as tissue specific estrogen agonist assay in ovariectomized rat model at 0.1 mg/kg dose: Not significant. More on the design: dose 0.1 mg/kg. Format: functional, organism-based.
The subject of the next test is MCF7. Kind of test: Inhibition of MCF-7 cell proliferation stimulated by 10e-12 M estradiol: Not active. The test is classed as functional, cell-based. The note with it: Homo sapiens.
For test [4], the species on record is Rattus norvegicus. In words: Effect on uterine weight as tissue specific estrogen agonist assay in ovariectomized rat model: Not significant. The test is classed as functional, organism-based.
Test [5] is filed under the species Rattus norvegicus. Kind of test: Effect on serum cholesterol level as tissue specific estrogen agonist assay in ovariectomized rat model: Not significant. Format: functional, organism-based.
Test [6] has as its target T1, Estrogen receptor (Rattus norvegicus). Kind of test: Effect on serum cholesterol level as tissue specific estrogen agonist assay in ovariectomized rat model: significant decrease at <=10 mg/kg dose. The note with it: filed as agonist. The test is classed as functional, organism-based.

On to `Oc1ccc2c(Cc3ccc(OCCN4CCCCC4)cc3)c(C3CCCCC3)sc2c1`, for which the Activity result in test [1] and in test [2] was “Agonist” in each case.

As to `Oc1ccc2c(Cc3ccc(OCCN4CCCCC4)cc3)c([C@H]3CC[C@H](O)CC3)sc2c1`, the outcome with Rattus norvegicus [3] was inactive.

Consider `C[C@]12CC[C@@H]3c4ccc(O)cc4CC[C@H]3[C@@H]1CC[C@@H]2O`, for which, in the test with MCF7, the Dose entry is “inactive”.

For `O=C(c1ccc(OCCN2CCCCC2)cc1)c1c(C2CCCC2)sc2cc(O)ccc12`, the outcome in the test on Rattus norvegicus [3] was inactive.

Turning to `Cc1sc2cc(O)ccc2c1Cc1ccc(OCCN2CCCCC2)cc1`, the outcome in the test listed under Rattus norvegicus [4] and in the test filed under Rattus norvegicus [5] was inactive.

Regarding `CC(C)c1sc2cc(O)ccc2c1Cc1ccc(OCCN2CCCCC2)cc1`, the Activity entry in test [6] and in test [2] was “Agonist” in each case.

Consider `Cc1sc2cc(O)ccc2c1C(=O)c1ccc(OCCN2CCCCC2)cc1`, for which, in the test filed under Rattus norvegicus [4], the result was inactive.

With `Oc1ccc2c(Cc3ccc(OCCN4CCCCC4)cc3)c(C3CCCC3)sc2c1`, the result in the test with Rattus norvegicus [3] was inactive. Further, the Activity entry in test [6] is “Agonist”.

For the compound `Oc1ccc2c(C(O)c3ccc(OCCN4CCCCC4)cc3)c(C3CCCC3)sc2c1` (configuration not stated), the result in the test listed under Rattus norvegicus [5] was inactive.

Turning to `CCc1sc2cc(O)ccc2c1Cc1ccc(OCCN2CCCCC2)cc1`, the Activity entry in test [6] and in test [2] was “Agonist” each time.

In the case of `CC(C)c1sc2cc(O)ccc2c1C(=O)c1ccc(OCCN2CCCCC2)cc1`, in the test with Rattus norvegicus [3], the result was inactive.

With `CCc1sc2cc(O)ccc2c1C(=O)c1ccc(OCCN2CCCCC2)cc1`, the outcome in the test listed under Rattus norvegicus [4] was inactive.

The record behind these values is ChEMBL document CHEMBL1150441.
